Test results taken from patent publication US9980943B2, “Methods of treating muscular dystrophy” (BOARD OF REGENTS OF THE NEVADA SYSTEM OF HIGHER EDUCATION, …, priority 2013, dated 2018).

Assays:
Assay type in all cases: cell-based, mouse
[1] = test system: α7 integrin (LacZ reporter in α7βgal+/− myoblasts); test: Myoblast α7+/LacZ integrin FDG assay (Burkin assay in myoblasts, 96-well); conditions: α7+/LacZ myoblasts, 96-well
[2] = test system: α7 integrin (LacZ reporter in α7+/LacZ myotubes); test: Myotube α7 integrin FDG assay (Burkin assay in myotubes, 96-well); conditions: myotubes
[3] = test system: β-galactosidase in CMV-LacZ C2C12 myoblasts; test: CMV-LacZ secondary screen in C2C12 myoblasts (β-Gal stabilizing assay); conditions: CMV-LacZ C2C12 myoblasts
Procedure, shortened: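 β-Gal level was the read-out, measured in a clonal C2C12 line expressing LacZ from a CMV promoter. Dose-response curves used six concentrations, 0.5 μM up to 40 μM, with duplicate points.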

[4] = test system: β-galactosidase in CMV-LacZ C2C12 myotubes; test: CMV-LacZ secondary screen in C2C12 myotubes (β-Gal stabilizing assay); conditions: C2C12 CMV-LacZ myotubes, fold relative to DMSO
Procedure, shortened: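 CMV-LacZ C2C12 line (clonal, FDG-screened); myoblasts/myotubes dosed 0.5–40 μM (0.5, 1, 5, 10, 20, 40 μM); n=2 per point; β-gal stabilization read-out.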

| SMILES | Burkin Assay in Myoblasts, signal relative to DMSO ([1]; 0.5 uM) | Burkin Assay in Myoblasts, signal relative to DMSO ([1]; 1 uM) | Burkin Assay in Myoblasts, signal relative to DMSO ([1]; 5 uM) | Burkin Assay in Myoblasts, signal relative to DMSO ([1]; 10 uM) | Burkin Assay in Myoblasts, signal relative to DMSO ([1]; 20 uM) | Burkin Assay in Myoblasts, signal relative to DMSO ([1]; 40 uM) | Burkin Assay in Myotubes, α7 integrin LacZ reporter signal relative to DMSO ([2]; 0.5 uM) | Burkin Assay in Myotubes, α7 integrin LacZ reporter signal relative to DMSO ([2]; 1 uM) | Burkin Assay in Myotubes, α7 integrin LacZ reporter signal relative to DMSO ([2]; 5 uM) | Burkin Assay in Myotubes, α7 integrin LacZ reporter signal relative to DMSO ([2]; 10 uM) | Burkin Assay in Myotubes, α7 integrin LacZ reporter signal relative to DMSO ([2]; 20 uM) | Burkin Assay in Myotubes, α7 integrin LacZ reporter signal relative to DMSO ([2]; 40 uM) | CMV-LACZ in Myoblasts (β-galactosidase activity relative to DMSO) ([3]; 0.5 uM) | CMV-LACZ in Myoblasts (β-galactosidase activity relative to DMSO) ([3]; 1 uM) | CMV-LACZ in Myoblasts (β-galactosidase activity relative to DMSO) ([3]; 5 uM) | CMV-LACZ in Myoblasts (β-galactosidase activity relative to DMSO) ([3]; 10 uM) | CMV-LACZ in Myoblasts (β-galactosidase activity relative to DMSO) ([3]; 20 uM) | CMV-LACZ in Myoblasts (β-galactosidase activity relative to DMSO) ([3]; 40 uM) | CMV-LACZ in Myotubes, signal relative to DMSO ([4]; 0.5 uM) | CMV-LACZ in Myotubes, signal relative to DMSO ([4]; 1 uM) | further results |
| --- | --- | --- | --- | --- | --- | --- | --- | --- | --- | --- | --- | --- | --- | --- | --- | --- | --- | --- | --- | --- | --- |
| CC(NC(=O)c1ccc(C(C)(C)C)cc1)C(c1cccs1)N1CCOCC1 (stereo not drawn) [MLS001167281-01] | 1.089 | 1.18 | 1.075 | 0.9776 | 0.8869 | 0.8618 | 1.063 | 1.054 | 1.074 | 1.142 | 0.8293 | 0.8345 | 1.0114 | 1.1289 | 0.9684 | 1.1951 | 0.9256 | 0.7467 | 1.0663 | 1.0789 | CMV-LACZ in Myotubes, signal relative to DMSO ([4]; 5 uM): 0.8948; CMV-LACZ in Myotubes, signal relative to DMSO ([4]; 10 uM): 0.9727; CMV-LACZ in Myotubes, signal relative to DMSO ([4]; 20 uM): 1.1089; CMV-LACZ in Myotubes, signal relative to DMSO ([4]; 40 uM): 0.9722 |
| O=c1[nH]c(CN2CCCCC2)nc2c1C1(CCCCC1)Cc1ccccc1-2 [MLS000028160-01] | 1.037 | 0.9873 | 0.9805 | 0.8521 | 1.107 | 0.8535 | 1.085 | 1.102 | 0.9162 | 0.9598 | 0.9049 | 0.8112 | 1.0663 | 0.9029 | 0.9378 | 1.2759 | 0.8967 | 0.8600 | 1.0524 | 1.0362 | CMV-LACZ in Myotubes, signal relative to DMSO ([4]; 5 uM): 1.0348; CMV-LACZ in Myotubes, signal relative to DMSO ([4]; 10 uM): 0.9249; CMV-LACZ in Myotubes, signal relative to DMSO ([4]; 20 uM): 1.0471; CMV-LACZ in Myotubes, signal relative to DMSO ([4]; 40 uM): 1.1976 |
| O=C(CNC(=O)c1cccc(F)c1)N/N=C/c1cc(Br)ccc1OCc1ccccc1 [MLS000591667-01] | 0.9901 | 1.034 | 1.132 | 1.088 | 0.8623 | 1.1351 | 1.005 | 1.1434 | 1.072 | 0.9986 | 0.6781 | 0.6965 | 0.9491 | 0.7850 | 1.1587 | 1.1592 | 0.8030 | 1.0593 | 0.8600 | 1.0726 | CMV-LACZ in Myotubes, signal relative to DMSO ([4]; 5 uM): 1.0824; CMV-LACZ in Myotubes, signal relative to DMSO ([4]; 10 uM): 1.0152; CMV-LACZ in Myotubes, signal relative to DMSO ([4]; 20 uM): 0.8929; CMV-LACZ in Myotubes, signal relative to DMSO ([4]; 40 uM): 0.8800 |
| Cc1ccc(NS(=O)(=O)c2cccc(C(=O)O)c2)cc1S(=O)(=O)N1CCOCC1 [MLS000393966-01] | 0.9495 | 0.9626 | 1.793 | 1.076 | 0.9904 | 0.965 | 0.8547 | 0.8436 | 1.304 | 0.9546 | 1.233 | 1.015 | 0.9249 | 1.0625 | 1.1744 | 0.8087 | 1.0411 | 0.9156 | 0.9358 | 1.3516 | CMV-LACZ in Myotubes, signal relative to DMSO ([4]; 5 uM): 0.8958; CMV-LACZ in Myotubes, signal relative to DMSO ([4]; 10 uM): 1.1877; CMV-LACZ in Myotubes, signal relative to DMSO ([4]; 20 uM): 1.0378; CMV-LACZ in Myotubes, signal relative to DMSO ([4]; 40 uM): 1.1167 |
| CC1CCN(C(CNS(=O)(=O)c2ccccc2)c2ccccc2)CC1 (stereo not drawn) [MLS002171615-01] | 1.052 | 0.9407 | 0.9747 | 0.8859 | 0.709 | 0.6178 | 1.107 | 1.17 | 0.9709 | 0.9947 | 0.8432 | 0.8303 | 1.0498 | 1.3505 | 0.9273 | 0.9905 | 1.2159 | 0.6726 | 0.9863 | 0.7874 | CMV-LACZ in Myotubes, signal relative to DMSO ([4]; 5 uM): 0.9989; CMV-LACZ in Myotubes, signal relative to DMSO ([4]; 10 uM): 0.9582; CMV-LACZ in Myotubes, signal relative to DMSO ([4]; 20 uM): 1.0111; CMV-LACZ in Myotubes, signal relative to DMSO ([4]; 40 uM): 1.0711 |
| CCc1c(C)sc(NC(=O)c2ccco2)c1C#N [MLS001240181-01] | 1.082 | 1.081 | 1.4585 | 1.074 | 1.153 | 1.198 | 1.174 | 1.214 | 1.643 | 0.9683 | 0.8871 | 0.7905 | 0.9550 | 1.0441 | 0.8408 | 1.1645 | 1.0367 | 0.8907 | 0.9519 | 1.0511 | CMV-LACZ in Myotubes, signal relative to DMSO ([4]; 5 uM): 1.0895; CMV-LACZ in Myotubes, signal relative to DMSO ([4]; 10 uM): 0.9955; CMV-LACZ in Myotubes, signal relative to DMSO ([4]; 20 uM): 1.0976; CMV-LACZ in Myotubes, signal relative to DMSO ([4]; 40 uM): 1.1376 |
